Biological target: T1, human FAAH (Fatty Acid Amide Hydrolase) (Homo sapiens, UniProt O00519)
T1 construct: The full length FAAH was subcloned into the mammalian expression vector, pcDEF.neo, using XbaI and EcoRI restriction sites; expressed in transfected cells
T1 sequence (O00519 1-579): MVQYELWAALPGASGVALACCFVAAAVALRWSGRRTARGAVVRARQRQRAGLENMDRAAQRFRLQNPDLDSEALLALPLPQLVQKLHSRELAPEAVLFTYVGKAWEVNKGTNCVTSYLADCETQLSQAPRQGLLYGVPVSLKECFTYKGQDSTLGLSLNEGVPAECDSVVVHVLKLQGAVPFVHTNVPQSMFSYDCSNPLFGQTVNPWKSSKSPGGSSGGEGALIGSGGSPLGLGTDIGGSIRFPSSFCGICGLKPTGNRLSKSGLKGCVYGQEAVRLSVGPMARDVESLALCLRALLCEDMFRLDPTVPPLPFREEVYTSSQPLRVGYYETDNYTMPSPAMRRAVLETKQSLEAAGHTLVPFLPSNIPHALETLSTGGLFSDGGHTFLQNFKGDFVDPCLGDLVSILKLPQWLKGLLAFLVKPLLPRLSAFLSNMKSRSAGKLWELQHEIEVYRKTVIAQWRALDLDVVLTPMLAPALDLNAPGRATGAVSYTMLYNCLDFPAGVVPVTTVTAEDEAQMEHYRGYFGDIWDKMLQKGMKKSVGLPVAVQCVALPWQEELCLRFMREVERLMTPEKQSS
Assay: FAAH whole cell assay on CHO cells expressing human FAAH (human WC), AAMCA fluorescent substrate
Format: cell-based
Conditions: human FAAH_CHO whole cell
Excerpt: To assist in assay development stable cell lines for human, murine and rat full length FAAH were developed. Human FAAH cDNA (Accession No: NM_001441.1) was purchased from Origene (Rockville, Md.). The full length FAAH was subcloned into the mammalian expression vector, pcDEF.neo, using XbaI and EcoRI restriction sites and used for stable cell line generation.
Murine (accession number NM_010173) and Rat FAAH (accession number NM_024132) was amplified by reverse transcriptase polymerase chain reaction (RT-PCR) from brain cDNA (BD Biosciences, San Jose, Calif.) using primers 1 and 2 or primers 1 and 3 respectively (see Table). The resulting PCR product was ligated into pCR4 TOPO and DNA sequence confirmed. The full length murine FAAH was subcloned into the mammalian expression vector, pcDEFneo using either EcoRI (murine) or KpnI and EcoRI (rat) restriction sites. Chinese hamster ovary cells (CHO) were transfected following manufacturers protocol (AMAXA). Forty eight hours post transfection, cells were trypsinized and transferred to 96 well plates in Iscove's DMEM media supplemented with 2 mM Glutamine, 10% fetal calf serum, 1 mg/ml geneticin and HT Supplement (0.1 mM sodium hypoxanthine, 0.016 mM thymidine) in order to isolate single clones. Following selection in geneticin, individual clones were selected and FAAH activity was assessed using a whole cell fluorescent anandamide assay, modified from Ramarao et al (2005). Following removal of tissue culture media cells were dislodged following addition of Cellstripper (Mediatech, Inc. Manassas, Va.) and transferred to 96 well black clear bottom assay plate, centrifuged at 1,000 rpm for 3 mins and media removed and replaced with assay buffer (50 mM Tris pH8.0, 1 mM EDTA, 0.1% fatty acid free BSA). The reaction was initiated by addition of fluorescent substrate, AMC Arachidonoyl Amide (Cayman Chemical, Ann Arbor, Mich.) to 1 μM and reaction allowed to proceed for 2 hours at room temperature. Release of fluorescence was monitored in a CytoFluor Multiplate Reader. Cells expressing the highest amount of FAAH activity were selected for study with FAAH inhibitors.
(American Radiolabeled Chemicals; 1 mCi/ml) with FAAH (Life Sciences (1995), 56, 1999-2005 and Journal of Pharmacology and Experimented Therapeutics (1997), 283, 729-734), Analytical. Biochemistry (2003), 318, 270-5. In addition, routine assays were performed monitoring hydrolysis of arachidonyl-7-amino-4-methylcoumarin amide (AAMCA) by following increase in fluorescence upon release of 7-amino 4-methyl coumarin (λEX=355 nm, μEM=460 nm). Analytical. Biochemistry (2005). 343, 143-51
Assays are performed on either cell lysate or microsome fractions prepared as described or in whole cell format employing either the fluorescent substrate AAMCA (Cayman chemical, Ann Arbor, Mich.,) or ^3H-anandamide ([ETHANOLAMINE-1-3H] American Radiolabeled Chemicals; 1 mCi/ml). The cell lysate or microsome assay is performed in black PerkinElmer OptiPlates-384F by adding FAAH_CHO (whole cell (human whole cell or human WC), cell lysate (human cell lysate or human LY) or microsome) in assay buffer (50 mM Phosphate, pH 8.0, 1 mM EDTA, 200 mM KCl, 0.2% glycerol, 0.1% fatty acid free BSA) to each well, followed by either DMSO or compound and allowed to incubate at 22-25° C. for fifteen minutes. AAMCA substrate was used to achieve a final concentration of 1 μM and reaction allowed to proceed at room temperature for 1-3 hours. Fluorescent release as a measure of FAAH activity was monitored by reading the plate in a Envision plate Reader (Ex: 360/40 nM; Em: 460/40 nM). Whole cell assay is conducted with cells harvested after rinsing tissue culture flasks three times with Ca^++Mg^++ free PBS, incubating for […] in Enzyme free dissociation media and centrifuging for 5 minutes at 1,000 rpm in table top centrifuge. […]

`O=C(NCC1(CO)CCOCC1)c1[nH]c2ncccc2c1Sc1ccc(Cl)cc1` [Example C22] was tested, and the IC50 was 1.17 µM.

With `Cn1cc2cc(-c3[nH]c4ncccc4c3Sc3ccc(Cl)cn3)ccc2n1` [Example B44] the IC50 was 0.025 µM.

`CCOC(=O)CCCc1[nH]c2ncccc2c1Sc1ccc(Cl)cc1` [Example F10] gave an IC50 of 0.35 µM.

`CC(C)(O)CCc1[nH]c2ncccc2c1Sc1ccc(Cl)cc1` [Example H2, 4-{3-[(4-chlorophenyl)sulfanyl]-1H-pyrrolo[2,3-b]pyridin-2-yl}-2-methylbutan-2-ol] gave an IC50 of 0.152 µM.

In the case of `Clc1ccc(Sc2c(C3CCNCC3)[nH]c3ncccc23)cc1` [Example G3, 3-[(4-chlorophenyl)sulfanyl]-2-(piperidin-4-yl)-1H-pyrrolo[2,3-b]pyridine], the IC50 is reported as 0.672 µM.

For `O=C(c1[nH]c2ncccc2c1Sc1ccc(Cl)cc1)N1CCC(O)CC1` [Example C6, {3-[(4-chlorophenyl)sulfanyl]-1H-pyrrolo[2,3-b]pyridin-2-yl}(4-hydroxypiperidin-1-yl)methanone], the IC50 was 1.09 µM.

For `OC[C@H]1CC[C@H](c2[nH]c3ncccc3c2Sc2ccc(Cl)cc2)CC1` [Example B52], the IC50 was 0.0356 µM.

`OCCCCc1[nH]c2ncccc2c1Sc1ccc(Cl)cc1` [Example H6] was tested, and the IC50 was 0.523 µM.

Compound `OCCCc1[nH]c2ncccc2c1Sc1ccc(Cl)cc1` [Example H4, 3-{3-[(4-chlorophenyl)sulfanyl]-1,1-pyrrolo[2,3-b]pyridin-2-yl}propan-1-ol] has an IC50 of 0.689 µM.

In the case of `CC(C)(O)CN1CCC(c2[nH]c3ncccc3c2Sc2ccc(Cl)cc2)CC1` [Example H5], the IC50 is reported as 0.0318 µM.

Work on `COC(=O)N1CCC(c2[nH]c3ncccc3c2Sc2ccc(Cl)cc2)CC1` [Example G5, Methyl 4-{3-[(4-chlorophenyl)sulfanyl]-1H-pyrrolo[2,3-b]pyridin-2-yl}piperidine-1-carboxylate] yielded an IC50 of 0.0111 µM.

In the case of `Cn1cccc2c(Sc3ccc(Cl)cc3)c(-c3ccc4c(c3)CNC4=O)nc1-2` [Example E28], the IC50 is reported as 0.024 µM.

For `COC(=O)CN1CCC(c2[nH]c3ncccc3c2Sc2ccc(Cl)cc2)CC1` [Example G7, Methyl (4-{3-[(4-chlorophenyl)sulfanyl]-1H-pyrrolo[2,3-b]pyridin-2-yl}piperidin-1-yl)acetate], the IC50 was 0.0238 µM.

With `C[C@H](CO)Cc1[nH]c2ncccc2c1Sc1ccc(Cl)cc1` [Example H7] the IC50 was 1.2 µM.

For `Cn1cc2cc(-c3nc4n(C)cccc-4c3Sc3ccc(Cl)cc3)ccc2n1` [Example E29], the IC50 was 0.0173 µM.

For `Cn1cccc2c(Sc3ccc(Cl)cc3)c(C(=O)NC3CCC(O)CC3)nc1-2` (centres unmarked) [Example E26], the IC50 was 0.504 µM.

`O=C(NCCCO)c1[nH]c2ncccc2c1Sc1ccc(Cl)cc1` [Example C19] gave an IC50 of 0.607 µM.

In the case of `Clc1ccc(Sc2c(CC3CCCCC3)[nH]c3ncccc23)cc1` [Example F4], the IC50 is reported as 0.266 µM.

With `C[C@@H](Cc1nc2n(C)cccc-2c1Sc1ccc(Cl)cc1)C(C)(C)O` [Example E27] the IC50 was 0.112 µM.

Work on `O=C(NCCO)c1[nH]c2ncccc2c1Sc1ccc(Cl)cc1` [Example C18] yielded an IC50 of 2.98 µM.

`Cn1cc2cc(-c3[nH]c4ncccc4c3Sc3ccc(Cl)cc3)ccc2n1` [Example B42] gave an IC50 of 0.00584 µM.

`C[C@H](CO)NC(=O)c1[nH]c2ncccc2c1Sc1ccc(Cl)cc1` [Example C20] was tested, and the IC50 was 2.11 µM.

`N#CCCCc1[nH]c2ncccc2c1Sc1ccc(Cl)cc1` [Example F6] showed an IC50 of 3.47 µM.

`Cn1cc2cc(-c3nc4n(C)cccc-4c3Sc3ccc(Cl)cn3)ccc2n1` [Example E30] showed an IC50 of 0.0872 µM.

`O=C(NCCCCO)c1[nH]c2ncccc2c1Sc1ccc(Cl)cc1` [Example C21] gave an IC50 of 0.363 µM.

In the case of `C[C@@H](Cc1[nH]c2ncccc2c1Sc1ccc(Cl)cc1)C(C)(C)O` [Example H8], the IC50 is reported as 0.0885 µM.

Compound `Cn1cccc2c(Sc3ccc(Cl)cc3)c(-c3ccc(C(O)C(F)F)cc3)nc1-2` (centres unmarked) [Example E25] has an IC50 of 0.0595 µM.

With `Cn1cccc2c(Sc3ccc(Cl)cn3)c(-c3ccc4c(c3)CNC4=O)nc1-2` [Example E31] the IC50 was 0.144 µM.

With `CCOC(=O)CCc1[nH]c2ncccc2c1Sc1ccc(Cl)cc1` [Example F3, Ethyl 3-{3-[(4-chlorophenyl)sulfanyl]-1H-pyrrolo[2,3-b]pyridin-2-yl}propanoate] the IC50 was 0.0649 µM.
